Results reported in PMC10661964 (Current Drug Metabolism, 2023).
Where two headings read alike, the source gives them in different places.

Tests used:
CYP 3A4 [1] = target: CYP 3A4 (Homo sapiens, UniProt P08684); assay: CYP inhibition with probe substrates; type: in vitro ADME
Text: (§1) The inhibition of cytochrome P450 (CYP) isoforms and a range of cellular transporters (except multidrug and toxin extrusion [MATE] proteins), as well as the induction of CYP isoforms were investigated using previously described methods.

CYP 2A6 = target: T1, CYP 2A6 (Homo sapiens, UniProt P11509); assay: CYP inhibition with probe substrate; type: in vitro ADME; details: coincubation, probe substrate coumarin; read-out: Co- IC50
T1 sequence (P11509 1-494): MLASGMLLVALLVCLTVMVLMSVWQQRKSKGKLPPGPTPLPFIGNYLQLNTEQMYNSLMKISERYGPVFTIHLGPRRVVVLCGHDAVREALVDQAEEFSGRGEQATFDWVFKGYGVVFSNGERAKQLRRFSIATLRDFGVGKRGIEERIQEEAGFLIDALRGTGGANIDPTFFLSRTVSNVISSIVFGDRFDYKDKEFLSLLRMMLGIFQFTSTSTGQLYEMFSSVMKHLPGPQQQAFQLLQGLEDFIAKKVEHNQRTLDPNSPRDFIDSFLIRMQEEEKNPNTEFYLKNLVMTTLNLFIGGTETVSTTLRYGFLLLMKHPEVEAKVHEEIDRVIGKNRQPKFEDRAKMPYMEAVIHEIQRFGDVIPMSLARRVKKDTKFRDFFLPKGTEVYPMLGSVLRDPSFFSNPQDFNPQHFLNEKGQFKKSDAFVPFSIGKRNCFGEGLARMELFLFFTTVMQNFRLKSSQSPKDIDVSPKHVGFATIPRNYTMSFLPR
Text: as §1

CYP 2C8 = target: T2, CYP 2C8 (Homo sapiens, UniProt P10632); assay: CYP inhibition with probe substrate; type: in vitro ADME; details: probe substrate amodiaquine
T2 sequence (P10632 1-490): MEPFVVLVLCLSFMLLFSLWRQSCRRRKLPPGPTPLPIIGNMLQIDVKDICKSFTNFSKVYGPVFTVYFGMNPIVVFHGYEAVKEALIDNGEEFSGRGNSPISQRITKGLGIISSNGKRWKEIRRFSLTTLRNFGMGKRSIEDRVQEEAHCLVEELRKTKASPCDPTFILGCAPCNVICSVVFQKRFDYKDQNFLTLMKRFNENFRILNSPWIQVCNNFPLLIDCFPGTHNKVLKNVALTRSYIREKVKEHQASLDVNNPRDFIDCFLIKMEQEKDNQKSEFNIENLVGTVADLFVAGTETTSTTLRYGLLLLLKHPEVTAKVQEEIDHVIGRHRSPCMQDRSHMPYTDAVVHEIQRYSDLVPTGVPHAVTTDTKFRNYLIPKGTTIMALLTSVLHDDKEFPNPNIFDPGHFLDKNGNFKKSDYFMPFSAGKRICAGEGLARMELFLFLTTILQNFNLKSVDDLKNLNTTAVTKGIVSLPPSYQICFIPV
Text: as §1

CYP 2E1 = CYP 2E1 (Homo sapiens, UniProt P05181); assay: CYP inhibition with probe substrate; type: in vitro ADME; details: coincubation, probe substrate chlorzoxazone; read-out: Co- IC50
Text: as §1

CYP 2C9 = CYP 2C9 (Homo sapiens, UniProt P11712); assay: CYP inhibition with probe substrate; type: in vitro ADME; details: probe substrate diclofenac
Text: as §1

CYP 1A2 = assay: CYP induction (mRNA and CYP activity); type: in vitro ADME, human
Text: as §1

CYP 3A4 [2] = assay: CYP induction (mRNA and CYP activity); type: in vitro ADME, human
Text: as §1

CYP 2B6 = assay: CYP induction (mRNA and CYP activity); type: in vitro ADME, human
Text: as §1

[3] = 3A4 (M), 30-min preincubation, probe substrate midazolam, read-out: Pre- IC50 (+ NADPH)
[4] = 3A4 (M), coincubation, probe substrate midazolam, read-out: Co- IC50
[5] = 3A4 (M), probe substrate midazolam
[6] = 3A4 (T), 30-min preincubation, probe substrate testosterone, read-out: Pre- IC50 (+ NADPH)
[7] = 3A4 (T), coincubation, probe substrate testosterone, read-out: Co- IC50
[8] = 3A4 (T), probe substrate testosterone
[9] = 30-min preincubation, read-out: Pre- IC50 (+ NADPH)
[10] = coincubation, read-out: Co- IC50

CYP 2C9, sequence (P11712 whole entry): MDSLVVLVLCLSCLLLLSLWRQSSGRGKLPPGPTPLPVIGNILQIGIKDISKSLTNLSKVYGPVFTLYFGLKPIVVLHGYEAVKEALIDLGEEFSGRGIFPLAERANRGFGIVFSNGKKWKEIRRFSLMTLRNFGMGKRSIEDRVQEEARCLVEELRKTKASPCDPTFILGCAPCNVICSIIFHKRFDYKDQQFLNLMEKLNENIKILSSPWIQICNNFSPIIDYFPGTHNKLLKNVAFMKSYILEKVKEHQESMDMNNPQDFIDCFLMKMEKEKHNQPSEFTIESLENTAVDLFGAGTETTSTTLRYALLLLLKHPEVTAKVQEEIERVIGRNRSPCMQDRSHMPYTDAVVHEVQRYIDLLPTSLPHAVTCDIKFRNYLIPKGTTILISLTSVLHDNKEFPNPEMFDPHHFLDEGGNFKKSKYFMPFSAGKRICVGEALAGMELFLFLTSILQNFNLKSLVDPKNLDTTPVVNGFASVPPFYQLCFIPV
CYP 2E1, sequence (P05181 whole entry): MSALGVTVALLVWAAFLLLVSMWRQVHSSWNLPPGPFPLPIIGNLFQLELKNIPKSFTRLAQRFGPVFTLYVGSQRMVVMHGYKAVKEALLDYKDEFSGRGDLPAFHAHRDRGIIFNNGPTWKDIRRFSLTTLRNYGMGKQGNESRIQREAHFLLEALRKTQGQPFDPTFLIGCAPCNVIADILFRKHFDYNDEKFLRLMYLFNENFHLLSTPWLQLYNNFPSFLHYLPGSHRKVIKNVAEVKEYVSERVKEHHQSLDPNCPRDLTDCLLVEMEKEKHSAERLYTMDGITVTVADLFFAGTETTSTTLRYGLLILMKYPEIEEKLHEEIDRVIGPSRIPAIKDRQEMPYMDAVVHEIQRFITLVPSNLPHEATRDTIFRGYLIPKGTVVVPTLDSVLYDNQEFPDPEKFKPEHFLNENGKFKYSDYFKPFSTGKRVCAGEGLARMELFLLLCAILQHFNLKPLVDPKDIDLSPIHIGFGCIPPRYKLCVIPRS
CYP 3A4 (Homo sapiens, UniProt P08684), sequence (P08684 whole entry, canonical isoform): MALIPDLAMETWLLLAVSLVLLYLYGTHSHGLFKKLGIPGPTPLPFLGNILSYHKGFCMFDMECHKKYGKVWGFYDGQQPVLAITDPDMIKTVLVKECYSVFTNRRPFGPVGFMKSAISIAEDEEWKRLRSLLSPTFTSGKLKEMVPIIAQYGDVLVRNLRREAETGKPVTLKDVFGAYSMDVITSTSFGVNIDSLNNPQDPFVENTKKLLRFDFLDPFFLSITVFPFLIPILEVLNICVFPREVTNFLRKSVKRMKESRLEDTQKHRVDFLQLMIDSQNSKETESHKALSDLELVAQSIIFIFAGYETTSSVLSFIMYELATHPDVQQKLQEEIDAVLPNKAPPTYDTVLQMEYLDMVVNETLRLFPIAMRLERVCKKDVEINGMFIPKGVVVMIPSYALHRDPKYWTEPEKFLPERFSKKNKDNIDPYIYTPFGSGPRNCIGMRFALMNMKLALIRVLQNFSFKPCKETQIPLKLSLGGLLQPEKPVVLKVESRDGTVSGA

Row | Compound | IC50 (CYP 3A4 [1]; [3]) [M] | IC50 (CYP 3A4 [1]; [4]) [M] | TDI (time-dependent inhibition) (CYP 3A4 [1]; [5]) | IC50 (CYP 3A4 [1]; [6]) [M] | IC50 (CYP 3A4 [1]; [7]) [M] | TDI (time-dependent inhibition) (CYP 3A4 [1]; [8]) | IC50 (CYP 2A6) [µM] | IC50 (CYP 2C8; [9]) [µM] | IC50 (CYP 2C8; [10]) [µM] | TDI (time-dependent inhibition) (CYP 2C8) | IC50 (CYP 2E1) [µM] | IC50 (CYP 2C9; [9]) [µM] | IC50 (CYP 2C9; [10]) [µM] | TDI (time-dependent inhibition) (CYP 2C9) | concentration up to which no induction (mRNA and CYP activity) (CYP 1A2) | concentration up to which no induction (mRNA and CYP activity) (CYP 3A4 [2]) | concentration up to which no induction (mRNA and CYP activity) (CYP 2B6)
1 | CC1CS(=O)(=O)CCN1n1cc(SCC(N)C(=O)O)ccc1=O (stereo not drawn) [M-4] | > 2e-05 | > 2e-05 | No | > 2e-05 | > 2e-05 | No | > 20 | > 20 | > 20 | No | > 20 | > 20 | > 20 | No | up to 80000 µg/L | up to 80000 µg/L | up to 80000 µg/L
2 | CC1CS(=O)(=O)CCN1/N=C/c1ccc([N+](=O)[O-])o1 (stereo not drawn) [Nifurtimox, (E)-N-(3-methyl-1,1-dioxo-1,4-thiazinan-4-yl)-1-(5-nitrofuran-2-yl) methanimine, reference compound] | 4.8e-05 to 4.9e-05 | > 5e-05 | No | > 5e-05 | > 5e-05 | No | > 50 | > 50 | > 50 | No | > 50 | > 50 | > 50 | No | up to 30000 µg/L | up to 30000 µg/L | up to 30000 µg/L
3 | CC1CS(=O)(=O)CCN1N (stereo not drawn) [M-6] | > 0.0001 | > 0.0001 | No | > 0.0001 | > 0.0001 | No | > 100 | > 100 | > 100 | No | > 100 | > 100 | > 100 | No | up to 90000 µg/L | up to 90000 µg/L | up to 90000 µg/L
